Measured values from PubChem BioAssay (NCI).
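Tested at 5 concentrations; 48 h exposure; 96-well plates; endpoints linearly interpolated, else capped at highest concentration. Abbreviation: GI50, concentration required for 50% inhibition of growth. Definition used: TGI = concentration required for complete inhibition of growth.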

Experiments:
Assay in all cases: NCI-60 cell line screen, 48 h
MDA-MB-435 = test system: MDA-MB-435
UO-31 renal = test system: UO-31 renal
NCI-H23 lung = test system: NCI-H23 lung
EKVX NSCLC = test system: EKVX NSCLC
OVCAR-5 ovarian = test system: OVCAR-5 ovarian
U251 CNS = test system: U251 CNS
HCC-2998 colon = test system: HCC-2998 colon
BT-549 breast = test system: BT-549 breast
CAKI-1 renal = test system: CAKI-1 renal
UACC-62 melanoma = test system: UACC-62 melanoma
OVCAR-8 ovarian = test system: OVCAR-8 ovarian
HL-60(TB) leukemia = test system: HL-60(TB) leukemia
SK-MEL-2 melanoma = test system: SK-MEL-2 melanoma
A498 renal = test system: A498 renal
MCF7 breast = test system: MCF7 breast
SR leukemia = test system: SR leukemia
HT29 colon = test system: HT29 colon
786-0 renal = test system: 786-0 renal
SF-268 CNS = test system: SF-268 CNS
ACHN renal = test system: ACHN renal
SNB-75 CNS = test system: SNB-75 CNS
SK-MEL-5 melanoma = test system: SK-MEL-5 melanoma
RPMI-8226 leukemia = test system: RPMI-8226 leukemia
LOX IMVI melanoma = test system: LOX IMVI melanoma
RXF 393 renal = test system: RXF 393 renal
MDA-MB-231 breast = test system: MDA-MB-231 breast
SNB-19 CNS = test system: SNB-19 CNS
MALME-3M melanoma = test system: MALME-3M melanoma
SF-295 CNS = test system: SF-295 CNS
SW-620 colon = test system: SW-620 colon
SF-539 CNS = test system: SF-539 CNS
UACC-257 melanoma = test system: UACC-257 melanoma
K-562 leukemia = test system: K-562 leukemia
TK-10 renal = test system: TK-10 renal
NCI/ADR-RES ovarian = test system: NCI/ADR-RES ovarian
COLO 205 colon = test system: COLO 205 colon
IGROV1 ovarian = test system: IGROV1 ovarian
NCI-H460 lung = test system: NCI-H460 lung
A549 NSCLC = test system: A549 NSCLC
KM12 colon = test system: KM12 colon
SN12C renal = test system: SN12C renal
M14 melanoma = test system: M14 melanoma
HCT-15 colon = test system: HCT-15 colon
NCI-H522 lung = test system: NCI-H522 lung
OVCAR-3 ovarian = test system: OVCAR-3 ovarian
HCT-116 colon = test system: HCT-116 colon
T-47D breast = test system: T-47D breast
DU-145 prostate = test system: DU-145 prostate
HOP-62 NSCLC = test system: HOP-62 NSCLC
SK-MEL-28 melanoma = test system: SK-MEL-28 melanoma
SK-OV-3 ovarian = test system: SK-OV-3 ovarian
PC-3 prostate = test system: PC-3 prostate
HS 578T breast = test system: HS 578T breast
MOLT-4 leukemia = test system: MOLT-4 leukemia
NCI-H226 lung = test system: NCI-H226 lung
OVCAR-4 ovarian = test system: OVCAR-4 ovarian
CCRF-CEM leukemia = test system: CCRF-CEM leukemia
HOP-92 NSCLC = test system: HOP-92 NSCLC

SMILES: CC1(C)[C@@H]2C[C@H]1C(Cc1ccc(C[C@H]3c4cc(-c5ccccn5)ncc4[C@H]4C[C@@H]3C4(C)C)cc1)c1cc(-c3ccccn3)ncc12 (some centres not stated)
- TGI (MDA-MB-435): 23.3 µM
- TGI (UO-31 renal): 4.91 µM
- TGI (NCI-H23 lung): 37 µM
- TGI (EKVX NSCLC): 15 µM
- TGI (OVCAR-5 ovarian): > 100 µM
- TGI (U251 CNS): 19.7 µM
- TGI (HCC-2998 colon): 88.2 µM
- TGI (BT-549 breast): > 100 µM
- TGI (CAKI-1 renal): > 100 µM
- TGI (UACC-62 melanoma): 5.68 µM
- TGI (OVCAR-8 ovarian): 15.8 µM
- TGI (HL-60(TB) leukemia): 2.28 µM
- TGI (SK-MEL-2 melanoma): > 100 µM
- TGI (A498 renal): 7.99 µM
- TGI (MCF7 breast): > 100 µM
- TGI (SR leukemia): 5.02 µM
- TGI (HT29 colon): > 100 µM
- TGI (786-0 renal): 14.7 µM
- TGI (SF-268 CNS): 28.6 µM
- TGI (ACHN renal): > 100 µM
- TGI (SNB-75 CNS): > 100 µM
- TGI (SK-MEL-5 melanoma): 7.81 µM
- TGI (RPMI-8226 leukemia): 70 µM
- TGI (LOX IMVI melanoma): 7.55 µM
- TGI (RXF 393 renal): 77.8 µM
- TGI (MDA-MB-231 breast): > 100 µM
- TGI (SNB-19 CNS): > 100 µM
- TGI (MALME-3M melanoma): 76.6 µM
- TGI (SF-295 CNS): > 100 µM
- TGI (SW-620 colon): > 100 µM
- TGI (SF-539 CNS): 7.13 µM
- TGI (UACC-257 melanoma): > 100 µM
- TGI (K-562 leukemia): > 100 µM
- TGI (TK-10 renal): > 100 µM
- TGI (NCI/ADR-RES ovarian): 22.2 µM
- TGI (COLO 205 colon): 13.7 µM
- TGI (IGROV1 ovarian): > 100 µM
- TGI (NCI-H460 lung): 13.8 µM
- TGI (A549 NSCLC): 87.9 µM
- TGI (KM12 colon): 38.4 µM
- TGI (SN12C renal): 23.3 µM
- TGI (M14 melanoma): > 100 µM
- TGI (HCT-15 colon): > 100 µM
- TGI (NCI-H522 lung): > 100 µM
- TGI (OVCAR-3 ovarian): 18.8 µM
- TGI (HCT-116 colon): 18.3 µM
- TGI (T-47D breast): > 100 µM
- TGI (DU-145 prostate): > 100 µM
- TGI (HOP-62 NSCLC): 11 µM
- TGI (SK-MEL-28 melanoma): 79.7 µM
- TGI (SK-OV-3 ovarian): > 100 µM
- TGI (PC-3 prostate): 22.8 µM
- TGI (HS 578T breast): > 100 µM

SMILES: CS(=O)c1ccc(-c2nc(-c3ccc(F)cc3)c(-c3ccncc3)[nH]2)cc1 (configuration not stated)
- GI50 (MOLT-4 leukemia): 28.3 µM
- TGI (MOLT-4 leukemia): > 96.4 µM
- GI50 (MDA-MB-435): 20.7 µM
- TGI (MDA-MB-435): > 100 µM
- GI50 (UO-31 renal): 20.1 µM
- TGI (UO-31 renal): > 79.6 µM
- GI50 (NCI-H23 lung): 59.2 µM
- TGI (NCI-H23 lung): > 100 µM
- GI50 (EKVX NSCLC): 49 µM
- TGI (EKVX NSCLC): > 100 µM
- GI50 (OVCAR-5 ovarian): 55 µM
- TGI (OVCAR-5 ovarian): > 100 µM
- GI50 (U251 CNS): 38 µM
- TGI (U251 CNS): > 100 µM
- GI50 (HCC-2998 colon): 33.6 µM
- TGI (HCC-2998 colon): > 89.7 µM
- GI50 (BT-549 breast): 21 µM
- TGI (BT-549 breast): 72.4 µM
- GI50 (NCI-H226 lung): 24.7 µM
- TGI (NCI-H226 lung): > 73.1 µM
- GI50 (CAKI-1 renal): 21.6 µM
- TGI (CAKI-1 renal): > 81.9 µM
- GI50 (UACC-62 melanoma): 9.09 µM
- TGI (UACC-62 melanoma): > 66 µM
- GI50 (OVCAR-8 ovarian): 29.6 µM
- TGI (OVCAR-8 ovarian): > 100 µM
- GI50 (HL-60(TB) leukemia): 23 µM
- TGI (HL-60(TB) leukemia): 53.1 µM
- GI50 (SK-MEL-2 melanoma): 23 µM
- TGI (SK-MEL-2 melanoma): 49.4 µM
- GI50 (A498 renal): 10.6 µM
- TGI (A498 renal): 53.5 µM
- GI50 (MCF7 breast): 33.6 µM
- TGI (MCF7 breast): > 100 µM
- GI50 (SR leukemia): 16.4 µM
- TGI (SR leukemia): > 77 µM
- GI50 (HT29 colon): 10.7 µM
- TGI (HT29 colon): > 89.4 µM
- GI50 (786-0 renal): 16.8 µM
- TGI (786-0 renal): 38.8 µM
- GI50 (SF-268 CNS): 49.4 µM
- TGI (SF-268 CNS): > 100 µM
- GI50 (ACHN renal): 21.4 µM
- TGI (ACHN renal): > 100 µM
- GI50 (SNB-75 CNS): > 44.6 µM
- TGI (SNB-75 CNS): > 100 µM
- GI50 (SK-MEL-5 melanoma): 20.3 µM
- TGI (SK-MEL-5 melanoma): 50.5 µM
- GI50 (OVCAR-4 ovarian): 39.7 µM
- TGI (OVCAR-4 ovarian): > 100 µM
- GI50 (CCRF-CEM leukemia): 27.3 µM
- TGI (CCRF-CEM leukemia): > 100 µM
- GI50 (RPMI-8226 leukemia): 26.2 µM
- TGI (RPMI-8226 leukemia): 83.6 µM
- GI50 (HOP-92 NSCLC): 28.8 µM
- TGI (HOP-92 NSCLC): > 100 µM
- GI50 (RXF 393 renal): 15.7 µM
- TGI (RXF 393 renal): 39.3 µM
- GI50 (MDA-MB-231 breast): 48.4 µM
- TGI (MDA-MB-231 breast): > 100 µM
- GI50 (SNB-19 CNS): > 77.3 µM
- TGI (SNB-19 CNS): > 100 µM
- GI50 (MALME-3M melanoma): 14.2 µM
- TGI (MALME-3M melanoma): 64.9 µM
- GI50 (SF-295 CNS): 29.1 µM
- TGI (SF-295 CNS): > 71.6 µM
- GI50 (SW-620 colon): 30 µM
- TGI (SW-620 colon): > 75 µM
- GI50 (SF-539 CNS): 44.8 µM
- TGI (SF-539 CNS): > 100 µM
- GI50 (UACC-257 melanoma): 16.3 µM
- TGI (UACC-257 melanoma): 41.6 µM
- GI50 (K-562 leukemia): 25 µM
- TGI (K-562 leukemia): > 100 µM
- GI50 (TK-10 renal): 24.3 µM
- TGI (TK-10 renal): > 78.1 µM
- GI50 (NCI/ADR-RES ovarian): > 100 µM
- TGI (NCI/ADR-RES ovarian): > 100 µM
- GI50 (COLO 205 colon): 14.7 µM
- TGI (COLO 205 colon): 50.2 µM
- GI50 (IGROV1 ovarian): 21.9 µM
- TGI (IGROV1 ovarian): > 85.5 µM
- GI50 (NCI-H460 lung): 33.5 µM
- TGI (NCI-H460 lung): > 100 µM
- GI50 (A549 NSCLC): 35 µM
- TGI (A549 NSCLC): > 100 µM
- GI50 (KM12 colon): 35.9 µM
- TGI (KM12 colon): > 100 µM
- GI50 (SN12C renal): 41.9 µM
- TGI (SN12C renal): > 100 µM
- GI50 (M14 melanoma): 11.3 µM
- TGI (M14 melanoma): 43.3 µM
- GI50 (HCT-15 colon): 30.2 µM
- TGI (HCT-15 colon): > 100 µM
- GI50 (NCI-H522 lung): 28.8 µM
- TGI (NCI-H522 lung): > 85.6 µM
- GI50 (OVCAR-3 ovarian): 25.9 µM
- TGI (OVCAR-3 ovarian): > 100 µM
- GI50 (HCT-116 colon): 20.1 µM
- TGI (HCT-116 colon): > 63.8 µM
- GI50 (T-47D breast): 18 µM
- TGI (T-47D breast): > 100 µM
- GI50 (DU-145 prostate): 31.7 µM
- TGI (DU-145 prostate): > 100 µM
- GI50 (HOP-62 NSCLC): > 100 µM
- TGI (HOP-62 NSCLC): > 100 µM
- GI50 (SK-MEL-28 melanoma): 17.1 µM
- TGI (SK-MEL-28 melanoma): 66.3 µM
- GI50 (SK-OV-3 ovarian): 18.8 µM
- TGI (SK-OV-3 ovarian): > 82 µM
- GI50 (PC-3 prostate): 35.6 µM
- TGI (PC-3 prostate): > 89.4 µM
- GI50 (HS 578T breast): 33.3 µM
- TGI (HS 578T breast): > 100 µM
